Experimental data: patent US8466203B2, “Method of stabilizing human eye tissue by reaction with nitrite and related agents such as nitro compounds” (priority 2006, dated 2013)
Like-named read-outs stand apart in the source and are kept apart here.

Assays:
porcine sclera [1] = test: Thermal shrinkage temperature analysis of porcine scleral strips
From the text: Thermal shrinkage temperature or denaturation temperature (Ts) is a technique that has been used for decades in studying collagen cross-linking. As collagen fibers are progressively heated, a threshold temperature is reached at which point disruption of hydrogen bonding in the collagen molecule triple helix occurs, resulting in unwinding of the triple helices. The denaturation of tertiary protein structure results in a rapid shrinkage of the tissue of up to 80%. This phenomenon can be expressed in various ways including temperature of onset of tissue shrinkage, temperature at maximal tissue shrinkage, and temperature at 50% of maximal tissue shrinkage, for example. In addition, differential scanning calorimetry (DSC) is related to thermal shrinkage temperature analysis and is widely used to evaluate biomaterial cross-linking. Thermal shrinkage temperature is essentially a simplified version of DSC and can be used effectively to screen the cross-linking efficacy of compounds. For the purposes of this study, the onset of shrinkage is considered the Ts and the temperature at which 50% of maximal shrinkage has occurred is T50. Graphs depicting the relationship between degree of shrinkage and temperature indicate differences in degree of cross-linking between groups. Thus, stabilization of collagen fiber structures through non-enzymatic cross-linking increases Ts and T50.
This system can perform multiple Ts assays in succession, allowing rapid screening of a number of potential cross-linking agents and conditions. […] Inlet and outlet fittings allow for constant circulation of heated water which is modulated by a digitally controlled water bath equipped with a water pump. The entire box is placed on a digital photo scanner connected to a Windows based computer. Beginning at 50° C. the temperature is raised at a rate of 1° C./min and serial scans are taken at every degree increase in temperature up to 80° C. […] As the tissue shrinks, the images are captured by the scanner. The image files are later analyzed for 2-dimensional area using NIH Image J software and % shrinkage calculations are made using Microsoft Excel for graphing purposes. This method obviates the need for removal of tissue pieces from the water bath with manual micrometer measurements as described by the UVR group (Spoerl, E., et al., 2004).
Using this simple, reproducible assay enables the screening of a number of compounds for cross-linking efficacy. This is first performed using porcine eyes because of their low cost. Follow up studies can be performed using human eyes. Porcine eyes are obtained within 6 hrs of sacrifice (Hatfield Meat Packing, Inc., Hatfield Pa.). Eyes showing clear corneas and intact epithelia are chosen for study. […] Each strip is then cross-linked using a nitro agent. […] Opthalmol. 1999; 117:166-169) for 24-96 hrs. Following incubation, the samples are evaluated for degree of cross-linking using the Ts assay as described above.
From the data, Ts curves are generated for each compound and condition studied. Each data point is the average of 3 independent samples.

Solubility in water = format: physicochemical
ARPE-19 cells = tested on: ARPE-19 cells
From the text: A cytotoxicity study was undertaken to obtain an impression of the level of cellular tolerance to these compounds. For pilot experiments ARPE-19 cells were used. This is an immortal human retinal pigment epithelial cell line commonly used for experiments related to macular degeneration. In these pilot studies, the ARPE-19 cells serve as a surrogate for cytotoxicity experiments. Primary cultures of bovine corneal endothelial cells were also used in the cytotoxicity studies described. Bovine corneal cells have more direct relevance for evaluating potential cytotoxic effects during cross-linking of living eye tissue.
ARPE-19 cells were grown to 80% confluence in 96 well tissue culture plates. The cells were then exposed to varying concentrations of NaNO2 and 2-nitroethanol in their culture medium and evaluated for cell death using trypan blue (TB) staining (0.4% for 5 min) after 24 hrs.

porcine cornea [2] = test: Gross stiffness of porcine corneal strips handled with a forceps; conditions: 100 mM, pH 7.4, 37° C., 48 hrs
Description: Fresh porcine corneal strips and corneoscleral complexes obtained within 6 hrs of sacrifice and incubated at 37° C. in buffered solutions (pH 7.4) containing 20% Dextran (T500) and either 100 mM NaNO2 or 100 mM of one each of the specified β-nitro alcohols
These images were taken from tissues cross-linked with nitrite and the β-nitro alcohols 2-nitroethanol, 2-nitro-1-propanol, and […], for 48 hrs. […] Fresh porcine corneal strips and corneoscleral complexes were obtained within 6 hrs of sacrifice and incubated at 37° C. in buffered solutions (pH 7.4) containing 20% Dextran (T500) and either 100 mM NaNO2 or 100 mM of one each of the β-nitro alcohols. After 48 hrs, the following images were obtained. […] FIGS. 13 (B and D)

porcine cornea [3] = conditions: 200 mM, pH 5.0, 37° C.
Description: (§1) Adult porcine eyes were obtained within 12 hours of sacrifice and submerged in a solution of either 200 mM NaNO2 or 200 mM NaCl buffered with 200 mM NaH2PO4/Na2HPO4 (pH 5.0). Penicillin/Streptomycin was added (10 μl/ml) to prevent bacterial overgrowth. After 30 hours of incubation at 37° C., the corneas were excised at the limbus and photographed.
After 30 and 80 hours of incubation at 37° C., the corneas were excised at the limbus and subjected to shrinkage temperature (thermal denaturation) analysis. The intact cornea was heated in 2° C. increments every 5 minutes using a digitally controlled water bath. The maximal dimensions in the long and short axis were measured using a micrometer under visualization with an operating microscope. The percentage of tissue shrinkage was then estimated by using 2 dimensional area calculations from the micrometer readings.

[4] = 4° C.
Description: Adult porcine eyes were obtained within 12 hours of. sacrifice and submerged in solutions of 0, 10, 100 mM NaNO2 and 100 mM NaCl buffered with 50 mM NaH2PO4/Na2HPO4 (pH 7.4) following bubbling with 99% Argon/1% O2 in order to limit the amount of potential nitrite auto-oxidation caused by oxygen. Penicillin/Streptomycin was added (10 μl/ml) to prevent bacterial overgrowth. After 24 hours of incubation at 4° C., the aqueous humor was sampled for nitrite concentration using a modification of the Greiss colorimetric assay.
Adult porcine eyes were obtained within 12 hrs of sacrifice and submerged in solutions of 0, 10, 100 mM NaNO2 and 100 mM NaCl buffered with 50 mM NaH2PO4/Na2HPO4 (pH 7.4) following bubbling with 100% Argon in order to limit the amount of potential nitrite auto-oxidation caused by oxygen. Penicillin/Streptomycin was added (10 ul/ml) to prevent bacterial overgrowth. After 24 hrs of incubation at 4° C., the aqueous humor was sampled for nitrite concentration using a modification of the Greiss colorimetric assay.

type I collagen = type I collagen (Bos taurus, UniProt P02453+P02465); conditions: 7 day incubation, pH 7.4, 4° C.
Sequence of type I collagen (P02453 162-1217 limits assumed): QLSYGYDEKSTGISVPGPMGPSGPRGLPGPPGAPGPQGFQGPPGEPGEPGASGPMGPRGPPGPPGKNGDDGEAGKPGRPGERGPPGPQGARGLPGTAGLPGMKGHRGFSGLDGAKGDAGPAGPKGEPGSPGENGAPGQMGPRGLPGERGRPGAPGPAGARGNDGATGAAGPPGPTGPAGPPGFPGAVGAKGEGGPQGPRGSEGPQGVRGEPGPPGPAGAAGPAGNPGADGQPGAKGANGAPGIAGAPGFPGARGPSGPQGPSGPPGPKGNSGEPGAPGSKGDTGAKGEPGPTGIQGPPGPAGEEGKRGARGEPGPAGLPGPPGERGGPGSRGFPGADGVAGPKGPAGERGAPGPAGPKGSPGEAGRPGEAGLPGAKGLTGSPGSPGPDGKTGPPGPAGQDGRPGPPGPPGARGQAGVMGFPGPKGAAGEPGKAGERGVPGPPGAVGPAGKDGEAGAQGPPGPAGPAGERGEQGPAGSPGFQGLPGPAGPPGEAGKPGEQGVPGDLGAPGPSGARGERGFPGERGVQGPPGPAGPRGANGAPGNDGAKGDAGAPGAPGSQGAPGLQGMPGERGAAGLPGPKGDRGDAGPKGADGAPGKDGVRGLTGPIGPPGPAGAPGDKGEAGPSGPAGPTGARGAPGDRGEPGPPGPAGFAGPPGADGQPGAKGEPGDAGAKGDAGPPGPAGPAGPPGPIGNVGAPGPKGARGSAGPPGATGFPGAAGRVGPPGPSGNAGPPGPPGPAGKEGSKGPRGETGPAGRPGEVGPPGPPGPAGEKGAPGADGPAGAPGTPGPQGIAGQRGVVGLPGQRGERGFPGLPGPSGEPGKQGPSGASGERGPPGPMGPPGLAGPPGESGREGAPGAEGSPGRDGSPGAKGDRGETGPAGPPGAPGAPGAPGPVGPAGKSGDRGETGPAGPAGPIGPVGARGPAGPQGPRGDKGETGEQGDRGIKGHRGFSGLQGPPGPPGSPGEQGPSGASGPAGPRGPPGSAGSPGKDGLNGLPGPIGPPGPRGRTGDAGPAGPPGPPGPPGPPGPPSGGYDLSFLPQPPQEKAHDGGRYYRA
Sequence of type I collagen (P02465 80-1117 limits assumed): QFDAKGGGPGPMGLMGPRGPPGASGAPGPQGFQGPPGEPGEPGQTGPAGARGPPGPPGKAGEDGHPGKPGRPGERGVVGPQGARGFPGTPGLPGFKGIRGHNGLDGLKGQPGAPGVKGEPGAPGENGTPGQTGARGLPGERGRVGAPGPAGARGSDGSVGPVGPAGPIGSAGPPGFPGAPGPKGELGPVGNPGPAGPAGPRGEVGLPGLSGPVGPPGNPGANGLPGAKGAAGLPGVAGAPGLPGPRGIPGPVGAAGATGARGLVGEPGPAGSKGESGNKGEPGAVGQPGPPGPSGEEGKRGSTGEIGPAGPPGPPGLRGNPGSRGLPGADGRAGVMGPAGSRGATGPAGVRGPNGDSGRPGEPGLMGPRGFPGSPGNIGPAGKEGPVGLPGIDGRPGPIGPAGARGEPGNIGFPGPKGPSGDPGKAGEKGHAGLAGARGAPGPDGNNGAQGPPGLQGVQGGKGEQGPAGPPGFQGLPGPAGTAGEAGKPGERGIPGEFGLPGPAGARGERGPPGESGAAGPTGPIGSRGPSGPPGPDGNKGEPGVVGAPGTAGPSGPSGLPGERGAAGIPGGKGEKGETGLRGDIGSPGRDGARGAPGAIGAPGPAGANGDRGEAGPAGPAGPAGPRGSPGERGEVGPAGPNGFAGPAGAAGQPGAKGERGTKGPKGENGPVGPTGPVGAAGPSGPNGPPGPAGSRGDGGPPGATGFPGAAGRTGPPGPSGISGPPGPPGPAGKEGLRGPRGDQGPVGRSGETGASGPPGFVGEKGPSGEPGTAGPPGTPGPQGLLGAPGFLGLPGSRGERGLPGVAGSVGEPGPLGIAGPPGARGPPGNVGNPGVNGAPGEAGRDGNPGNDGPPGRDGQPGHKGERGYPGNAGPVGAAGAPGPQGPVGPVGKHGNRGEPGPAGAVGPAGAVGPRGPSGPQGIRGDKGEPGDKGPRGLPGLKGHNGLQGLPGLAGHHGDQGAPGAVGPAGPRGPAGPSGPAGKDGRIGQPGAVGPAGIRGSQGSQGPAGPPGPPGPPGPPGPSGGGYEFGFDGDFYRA
Description: Samples of pepsin-solubilized, bovine skin collagen type I (Purecol, 3 mg/ml, Inamed Corporation, Fremont, Calif., USA) dissolved in 0.012N HCl were spiked with dH2O containing 1M NaNO2 or NaCl concentration to obtain final concentrations of 0 mM, 10 mM, 100 mM NaNO2, and 100 mM NaCl. […] These conditions were identical to those used in the preincubation treatment of collagen for biomechanical testing. Following a 24 hour incubation (4° C.), an aliquot from each sample was added into SDS-PAGE sample buffer (Biorad) in a ratio of 1:2 (sample:sample buffer), reduced by heating at 100° C. for 5 minutes with dithiothreitol (DTT), and analyzed by SDS-PAGE. The separating gel was 5% acrylamide and stacking gel 4%. Equivalent quantities of protein (6 μg per lane) were loaded onto separate wells. The samples were run at 25 volts for approximately 3.5 hours, which was the time necessary for the dye front to leave the bottom of the gel. The gels were then stained with Coomasie blue solution for no less than 3 hours. Following destaining, the gels were digitally photographed for densitometric analysis, which was carried out using the Un-Scan-it software program version 4.1 (Silk Scientific Corp). […]

[5] = tested on: fibroblast-populated collagen gels; conditions: 100 mM; pretreatment pH 4.0 24 hours and posttreatment pH 7.4 seven days
Description: Biaxial mechanical properties of the collagen gels were examined by performing equibiaxial load controlled experiments after 72 hours of culture for pretreated and 10 days of culture for posttreated collagen gels. To perform the planar biaxial mechanical test, the loading frame was first removed and the gels were floated to the top of their Petri dish using standard media (DMEM with 10% FBS and antibiotics) at 37° C. Gels were loaded by applying equal weights on all sides of the gel simultaneously (equibiaxial loading). First, gels were preconditioned by cyclically applying and removing 1 gram weights on all sides. […] One prominent feature of the preconditioning response in these gels is that the gels undergo some permanent deformation, not relaxing back to their initial dimensions even when fully unloaded.
The magnitude of the permanent deformation associated with preconditioning was quantified by computing the associated strain (E^P11, E^P22) using the unloaded configuration of the gel at the beginning of the mechanical test as the reference state and the new, stable unloaded state achieved at the end of preconditioning as the deformed state. After preconditioning, calibrated weights from 0 to 1000 mg are applied equibiaxially in 100 mg increments. Images of the gel surface are taken 30 seconds after each load application or removal, and the strains associated with each load were computed relative to the preconditioned unloaded reference state at the beginning of the loading run.
The impact of sodium nitrite on vertical deformation of uniaxially constrained gels was measured during each phase of the experiment.
Initially square fibroblast-populated collagen gels were cast and allowed to polymerize for 2 hrs. Markers were painted on the gel surface to allow tracking of deformation in the central region during the remainder of the experiment. […] At 72 hrs, the gel was mechanically tested. […] Then, the gel was loaded in a series of smaller steps and the response quantified (loading phase).

porcine cornea [6] = conditions: 200 mM, pH 5.0, 37° C., 30 hours
Description: as §1

porcine sclera [7] = conditions: 200 mM, pH 5.0, 37° C., 30 hours
Description: as §1

corneal endothelial cell = conditions: 3 hrs exposure, rabbit organ culture, electron microscopy, Green 1977; cited from earlier work
[8] = 100 mM, 1% DMSO, pH 7.4, 96 hrs
[9] = NaNO2 100 mM pH 3 with 1 mM urea
[10] = NaNO2 100 mM pH 3 with 10 mM urea
[11] = NaNO2 100 mM pH 3 with 100 mM urea

CC(C)CCON=O [Isopentyl nitrite, isopentyl nitrite, reference compound]
T50 (porcine sclera [1]; [8]): 65.4 °C
T50 Δ (porcine sclera [1]; [8]): 0.1 °C
shift in Ts (in words) (porcine sclera [1]; neutral pH, up to 100 mM): did not result in a shift in Ts
solubility in water (Solubility in water): poor solubility in water

O=N[O-].[Na+] [NaNO2, sodium nitrite]
blocking of the cross-linking effect by equimolar urea (porcine sclera [1]): unable to block
T50 (porcine sclera [1]; 100 mM, pH 3, 96 hrs): 69.3 °C
T50 Δ (porcine sclera [1]; 100 mM, pH 3, 96 hrs): 4.0 °C
T50 (porcine sclera [1]; 100 mM, pH 5, 96 hrs): 67.3 °C
T50 Δ (porcine sclera [1]; 100 mM, pH 5, 96 hrs): 2.0 °C
T50 (porcine sclera [1]; [9]): 70.1 °C
T50 Δ (porcine sclera [1]; [9]): 4.8 °C
T50 (porcine sclera [1]; [10]): 69.7 °C
T50 Δ (porcine sclera [1]; [10]): 4.4 °C
T50 (porcine sclera [1]; [11]): 65.6 °C
T50 Δ (porcine sclera [1]; [11]): 0.3 °C
shifts in Ts (in words) (porcine sclera [1]; pH 3): approximately equal shifts in Ts
T50 (temperature at 50% of maximal shrinkage) (porcine sclera [1]; pH 7.4): 65.7 °C
T50 Δ (change in 50% shrinkage temperature compared to control) (porcine sclera [1]; pH 7.4): 0.4 °C
effect on Ts (in words) (porcine sclera [1]; pH 7.4): no effect
tolerable level relative to genipin (ARPE-19 cells): at least 100 ×
tolerance by cells (trypan blue) (ARPE-19 cells; 100 mM, 24 hrs): tolerated by cells
highest tolerated level (ARPE-19 cells; ARPE-19): 100 mM
stiffness change when handled with a forceps (porcine cornea [2]): intermediate effect
increase of onset of tissue shrinkage (porcine cornea [3]; 30 hours of treatment): approximately 4 °C
increase of onset of tissue shrinkage (porcine cornea [3]; 80 hours of treatment): ~8 °C
Nitrite concentration in the aqueous humor, of the incubation fluid ([4]; 10 mM NaNO2, pH 7.4, 24 hours): 35.5%
Nitrite concentration in the aqueous humor, of the incubation fluid ([4]; 100 mM NaNO2, pH 7.4, 24 hours): 62.8%
collagen cross-linking by SDS-PAGE (type I collagen; 10 mM): No differences are observed
collagen cross-linking by SDS-PAGE (type I collagen; 100 mM): cross-linking of collagen primary strands is indicated
vertical deformation associated with preconditioning [5]: reduced vertical deformation associated with preconditioning
vertical deformation at 1 g equibiaxial load [5]: reduced vertical deformation at 1 g equibiaxial load
vertical remodeling [5]: reduced vertical remodeling
contour changes in the corneas (porcine cornea [6]): Dramatic contour changes
contour changes in sclera samples (porcine sclera [7]): dramatic contour changes

Benzalkonium chloride
Toxic concentration (corneal endothelial cell): (0.0001%)
